PubChem BioAssay (NCI)
Values joined by “and” are separate entries in the source; they are usually repeats but may differ in a detail not shown here. Equal values may be shown once.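 Five concentrations, 48 hours, 96-well plates. GI50 = concentration required for 50% inhibition of growth. TGI denotes the concentration required for complete inhibition of growth.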

Key:
Experiment in all cases: NCI anticancer screen, dose series, 48 h
[1] = system: SK-MEL-2 melanoma
[2] = system: TK-10 renal
[3] = system: OVCAR-8 ovarian
[4] = system: SR leukemia
[5] = system: DU-145 prostate
[6] = system: SK-OV-3 ovarian
[7] = system: DMS 273 small cell lung
[8] = system: KM20L2 colon
[9] = system: DLD-1 colon
[10] = system: M19-MEL melanoma
[11] = system: DMS 114 small cell lung
[12] = system: SNB-78 CNS
[13] = system: HOP-18 NSCLC
[14] = system: LXFL 529 NSCLC
[15] = system: XF 498 CNS

Compound	TGI [1]	TGI [2]	TGI [3]	TGI [4]	TGI [5]	TGI [6]	TGI [7]	TGI [8]	TGI [9]	TGI [10]	TGI [11]	TGI [12]	TGI [13]	TGI [14]	TGI [15]	GI50 [1]	GI50 [4]
CC(=O)N1CC[N+](C)(CCCCN2c3ccccc3Sc3cc(N=[N+]=[N-])ccc32)CC1	> 100 µM	> 100 µM	> 100 µM	> 100 µM	> 100 µM	> 100 µM											
NC(CCCNc1cccc(O)c1)C(=O)O (stereo unspecified)	> 100 µM	> 100 µM	> 100 µM	> 100 µM		> 100 µM	> 100 µM	> 100 µM	> 100 µM	> 100 µM	> 100 µM	> 100 µM	> 100 µM	> 100 µM			
COc1cc2c(oc(=O)c3cc4ccoc4c(OC)c32)c2cccc(O)c12	> 100 µM	> 100 µM	> 100 µM	> 100 µM		> 100 µM	> 100 µM	> 100 µM	> 100 µM	> 100 µM	> 100 µM	> 100 µM	> 100 µM	> 100 µM	> 100 µM		
CC(C)C(Sc1nc(-c2ccccc2)c(-c2ccccc2)[nH]1)C(=O)N/N=C/c1ccc([N+](=O)[O-])cc1 (stereo unspecified)	29.4 µM	> 100 µM	> 100 µM	33.6 µM		48.2 µM	27.5 µM	32.9 µM	> 100 µM	23.8 µM	68.2 µM	> 100 µM		33.8 µM	41 µM		
BrCCC[P+](c1ccccc1)(c1ccccc1)c1ccccc1	82.2 µM	> 100 µM	> 100 µM	> 100 µM	> 100 µM	> 100 µM											
O=C1/C(=C/c2ccc(Cl)cc2)N=C(c2ccccc2)N1C1Nc2cc3c(cc2S1)NC(N1C(=O)/C(=C/c2ccc(Cl)cc2)N=C1c1ccccc1)S3 (stereo unspecified)	> 100 µM	> 100 µM	> 100 µM	74.1 µM	> 100 µM	> 100 µM											
O=C1NC(N/N=C/c2ccccc2)=N/C1=C\c1cccs1	20.6 µM	71.5 µM	29.3 µM	> 100 µM	56.5 µM	39.1 µM											
COP(=O)(OC)C(O)/C=C(\Cl)c1ccc(Cl)cc1 (stereo unspecified)	> 100 µM	> 100 µM	54.6 µM	59.1 µM	> 100 µM	> 100 µM											
COc1cc(S(=O)(=O)Nc2ccc(-c3csc(N4C(=O)C(C)SC4c4ccccc4O)n3)cc2)ccc1Cl (stereo unspecified)	91.7 µM		> 100 µM	> 100 µM	> 100 µM	> 100 µM											
CC1(C)O[C@H]2[C@@H]3N=C(c4ccccc4)O[C@@H]3C=C[C@H]2O1	> 100 µM	> 100 µM	> 100 µM	> 100 µM	> 100 µM	> 100 µM											
CC(C)[Si](OCC1CC(C[C@H]2CC(C[C@H]3C[C@@H](CO[Si](C(C)C)(C(C)C)C(C)C)OC(C)(C)O3)OC(C)(C)O2)OC(C)(C)O1)(C(C)C)C(C)C (stereo partly specified)	> 100 µM	> 100 µM	> 100 µM	> 100 µM		> 100 µM	> 100 µM	> 100 µM	> 100 µM	> 100 µM	> 100 µM	> 100 µM	> 100 µM				
CC(C)/C(Cl)=N\OC(=O)Nc1ccc(F)c([N+](=O)[O-])c1	29.9 µM	13.5 µM	10.9 µM	26.3 µM	32.8 µM	34 µM											
Cc1cc(C)nc(NS(=O)(=O)c2ccc(NNC(=O)c3cccc4c(NNc5ccc(S(=O)(=O)Nc6nc(C)cc(C)n6)cc5)c5ccccc5nc34)cc2)n1	57.5 µM	67.7 µM	43.4 µM	53.1 µM	36.8 µM	87.1 µM											
O=c1oc2cc(O)ccc2cc1-c1nc2ccccc2s1	50.6 µM	> 100 µM	> 100 µM	> 100 µM	> 100 µM	78.1 µM											
CCOC(=O)NC(NNc1ccc([N+](=O)[O-])cc1[N+](=O)[O-])(C(F)(F)F)C(F)(F)F	> 100 µM	96 µM	> 100 µM	60.6 µM	> 100 µM	69.4 µM											
COc1cc(C=Nc2ccc(S(N)(=O)=O)cc2)cc(OC)c1	> 50 µM	> 50 µM	> 50 µM	> 50 µM	> 50 µM	> 50 µM											
CCOC(=O)/C=C(\C(=O)OCC)n1cnc2c(N)ncnc21	30.7 µM	17.3 µM	18.1 µM	4.25 µM	29.1 µM	32 µM											
CC(=O)[O-].CC(=O)[O-].O=C(N/N=C/c1cc(Cl)cc(Cl)c1[OH2+])c1ccncc1.[Zn+2]		> 100 µM	> 100 µM	> 100 µM		> 100 µM		> 100 µM									
Cn1c(=O)c2nc3nnc(C#N)c(N)n3c2n(C)c1=O	> 100 µM	> 100 µM	> 100 µM	> 100 µM	> 100 µM	> 100 µM											
COc1cc(/C=C/c2sc3ccccc3[n+]2C)ccc1N(C)C	8.31 µM and 29.3 µM	32 µM		7.71 µM and 36.3 µM	35 µM	54.8 µM										12.4 µM	6.85 µM
c1ccc2c(c1)CCN1CCc3c([nH]c4ccccc34)C21 (stereo unspecified)	57.1 µM	> 100 µM	> 100 µM	56.3 µM	> 100 µM	> 100 µM											
COc1ccc(N2CCN(Cc3c(C(C)=O)[n+](=O)c4ccccc4n3[O-])CC2)cc1	> 100 µM	67.5 µM	> 100 µM	> 100 µM	> 100 µM	> 100 µM											
Cc1nn(-c2ccccc2)c2c1C(c1cc3ccccc3nc1Cl)NC(=S)N2 (stereo unspecified)	44.8 µM	> 100 µM	82.2 µM	> 100 µM	> 100 µM	> 100 µM											
O=C(Nc1nncs1)NS(=O)(=O)n1cnc2ccccc21	> 100 µM	> 100 µM	> 100 µM	> 100 µM	> 100 µM	> 100 µM											
C=C(CN(C)C)C(=O)c1cc(C)ccc1C	37.8 µM	20.4 µM	66.5 µM	6.63 µM	22 µM	33 µM	39.3 µM	61.2 µM	7.47 µM	19.6 µM	21.4 µM	81.5 µM	11.6 µM	5.42 µM	33 µM		
O=C1c2ccccc2C(=O)C2C3c4ccccc4C(c4ccccc43)C12 (stereo unspecified)		63.3 µM	42.3 µM	30.5 µM		> 100 µM	39.4 µM	> 100 µM	> 100 µM	40 µM	42.7 µM	51.3 µM		37.2 µM			

Compound	TGI [1]	TGI [2]	TGI [3]	TGI [4]	TGI [5]	TGI [6]	TGI [7]	TGI [8]	TGI [9]	TGI [10]	TGI [11]	TGI [12]	TGI [13]	TGI [14]	TGI [15]	GI50 [1]	GI50 [4]
c1ccc(SC(Sc2ccccc2)c2ccc3c(c2)OCO3)cc1	> 100 µM	> 100 µM	> 100 µM	> 100 µM	> 100 µM												
CC(=O)O[C@H]1[C@H](OC(C)=O)[C@@H](CN=[N+]=[N-])OCO[C@@H]1CN=[N+]=[N-]	> 100 µM	> 100 µM	> 100 µM	> 100 µM	> 100 µM	> 100 µM											
OCCCCn1cc(Cn2ncc3c(SCc4ccccc4)ncnc32)nn1	> 100 µM	> 100 µM	> 100 µM	85.4 µM	> 100 µM	> 100 µM											
NC(N)=NS(=O)(=O)c1ccc(Nc2c3ccccc3nc3c(C(=O)NC(CO)(CO)CO)cccc23)cc1	50.8 µM	94.5 µM	> 100 µM	> 100 µM	> 100 µM	> 100 µM											
c1nc(SSc2ncnc3nc[nH]c23)c2[nH]cnc2n1	> 100 µM		> 100 µM	> 41.6 µM	> 100 µM	> 100 µM											
c1cc2cc(c1)CN1CCNCCN(CCNCC1)Cc1cccc(c1)CN1CCNCCN(CCNCC1)C2	> 100 µM	> 100 µM	> 100 µM	> 100 µM	> 100 µM	> 100 µM											
O=C1N(CN2CCOCC2)CN(CN2CCOCC2)C(=O)N1Cc1ccccc1	32.2 µM	> 100 µM	43.4 µM	40.7 µM	63.9 µM	> 100 µM											
COc1ccc(C(=O)Cn2c(C(C)=O)nc3ccccc32)cc1	> 100 µM	> 100 µM	> 44.5 µM	> 100 µM	> 100 µM	> 100 µM											
O=C(O)C(Cc1cnc[nH]1)N=Cc1nc(-c2ccccc2)oc1O (stereo unspecified)	> 100 µM	> 100 µM	> 100 µM	> 100 µM		> 100 µM	> 100 µM	> 100 µM	> 100 µM	> 100 µM	> 100 µM	> 100 µM		> 100 µM	> 100 µM		
COCC(=O)OC1CCn2c1nc1c2C(=O)C(C)=C(NC(C)=O)C1=N (stereo unspecified)	6.09 µM	32 µM	7.19 µM	7.52 µM	36.7 µM	37.5 µM											
CN(C)CS/C(N)=N\C(O)C(Cl)(Cl)Cl (stereo unspecified)	> 100 µM	> 100 µM	> 100 µM	> 100 µM	> 100 µM												
CC1(C)CCCCCC(C)(CCCCCCCCCCCO)C1=O (stereo unspecified)	30.4 µM	24.5 µM	31.2 µM	14.3 µM	31.8 µM	31.7 µM											
c1ccc(/N=N\Nc2ccc(-c3nc4ccccc4o3)cc2)nc1	> 100 µM	> 100 µM	> 100 µM	> 100 µM	> 100 µM	> 100 µM											
O=c1c2ccccc2c2c1c1c3ccccc3c(=O)c1c1c3ccccc3c(=O)c21	> 100 µM	> 100 µM	> 100 µM	> 100 µM	> 100 µM	> 100 µM											
O=C1c2ccccc2C(=O)c2c1oc(=O)c1ccccc21	10.1 µM	18.9 µM	15.1 µM	21.3 µM	14 µM	> 25 µM											
Cc1cc(N(CCC#N)CCC#N)ccc1/C(N=Nc1ccccc1)=N\NC(=O)c1ccccc1	> 100 µM	41 µM	90.7 µM	71.6 µM	> 100 µM	> 100 µM											
Cc1ccc(S(=O)C[C@@]2(C(F)F)NC(=O)NC2=O)cc1 (stereo partly specified)	> 100 µM	> 100 µM	> 100 µM	> 100 µM	> 100 µM	> 100 µM											
COc1ccccc1-c1nc2ccccc2c(=O)[nH]1	> 100 µM		> 100 µM	> 100 µM	> 100 µM	> 100 µM											
CC(=O)Nc1ccc(S(=O)(=O)[N-]C2C(=O)c3ccccc3C(=O)C2[n+]2ccccc2)cc1 (stereo unspecified)	25.3 µM	> 100 µM	38.3 µM	42.1 µM	> 100 µM	> 100 µM											
O=c1oc2cccnc2n1CCN1CCN(c2ccc(Oc3ccccc3)cc2)CC1	> 100 µM	> 100 µM	> 100 µM	> 100 µM	> 100 µM	> 100 µM											
CC(=O)N1C(C(=O)NNc2ccccc2)CSC1c1ccccc1 (stereo unspecified)	> 100 µM	> 100 µM	> 100 µM	> 100 µM	> 100 µM	> 100 µM											
O=c1c[n+](-c2ccccc2)[nH]o1	> 100 µM	> 100 µM		> 100 µM	> 100 µM	> 100 µM											
Nc1ccc(C(=O)NN2C(=O)C(Cl)C2c2ccc([N+](=O)[O-])cc2)cc1 (stereo unspecified)	31.8 µM	33.5 µM	56 µM			29.1 µM	17.5 µM	27.4 µM	21.8 µM	28 µM	11.2 µM	51.7 µM		18.2 µM			
NC(CCCCN=Cc1nc(-c2ccccc2)oc1O)C(=O)O (stereo unspecified)	> 100 µM	> 100 µM	> 100 µM	> 100 µM		> 100 µM	> 100 µM	> 100 µM	> 100 µM	> 100 µM	> 100 µM	> 100 µM		> 100 µM	> 100 µM		
O=C(O)CSc1nnc(CCCCCCCCc2nnc(SCC(=O)O)o2)o1	> 100 µM	> 100 µM	> 100 µM	> 100 µM	> 100 µM	> 100 µM											
